From patent US20100183699A1, “COMPOSITIONS AND METHODS TO CROSS LINK POLYMER FIBERS” (priority 2009, published 2010)
Entries after “also recorded” stand apart in the source; their conditions may differ. Read-outs that look alike come from different tables or passages of the source. Values belong to the molecule of their own block, whether it stands above or below them.

Columns and labels:
[1] = literature reports on alternative crosslinkers, cited from earlier work
[2] = SEM fiber morphology after exposure to aqueous environment (water, DMEM); type: physicochemical; settings: genipin 0.03-0.1 M in absolute ethanol or isopropanol, crosslinking for 5 days
Method: All samples were imaged using a Scanning Electron Microscope (Leo 1530) and diameters of 100 randomly selected fibers were measured, per sample, using image processing software (ImageJ). One-way ANOVA using the Tukey test was used to compare the difference between the diameters of crosslinked samples (Dcrosslink) and after exposure to growth media for 1 and 3 days (Dfinal). If a significant difference existed, the percent swelling was then calculated using the equation: […]
The experimental parameters investigated were: solvent (isopropanol, ethanol), water content (0%, 1%, 3% and 5%) and reaction time (1, 3 and 5 days). All electrospun collagen fiber samples were exposed to air and the reaction temperature was maintained at 37° C. in an incubator. The genipin concentration was fixed at 11.3 mg of genipin per mg of collagen, which was sufficient for the crosslinking reaction to reach completion (Yao, C. H., et al., Materials Chemistry and Physics 2004, 83, (2-3), 204-208). After crosslinking, the collagen samples were washed in ethanol or isopropanol (depending on the solvent used) for further characterization.

[3] = system: cells; settings: cited from earlier work; for cytotoxicity: crosslinking agent

Structure (SMILES): CCN=C=NCCCN(C)C [EDC, 1-ethyl-3-(3-dimethylaminopropyl) carbodiimide]
- swelling / morphology of crosslinked collagen fibers in water [1]: significant degree of swelling

- morphology and overall architecture of collagen nanofibers after exposure to water [2]: failed to maintain the morphology
Structure (SMILES): COC(=O)C1=CO[C@@H](O)[C@@H]2C(CO)=CC[C@H]12 [genipin]
- cell proliferation ([3]; compared to glutaraldehyde): more stimulative to cell proliferation
- cytotoxicity [3]: low cytotoxicity

Structure (SMILES): O=C1CCC(=O)N1O [NHS, N-hydroxysuccinimide]
- swelling / morphology of crosslinked collagen fibers in water [1]: significant degree of swelling

Structure (SMILES): O=CCCCC=O [glutaraldehyde, Glutaraldehyde]
- swelling / morphology of crosslinked collagen fibers in water [1]: not very effective in controlling its swelling properties
- swelling / morphology of crosslinked collagen fibers in water ([1]; listed as GA): failed to maintain collagen fiber morphology; also recorded: swell significantly in water
- cytotoxicity [3]: highly cytotoxic
